Read-outs that look alike come from different tables or passages of the source.
How the values were obtained:
[1] = tested on: Klebsiella pneumoniae expressing VIM-1 (IHMA599644); assay: Antibiotic potentiation activity: synergistic concentration (MITC95) with imipenem, growth by OD600; type: cell-based
Procedure, shortened: (§1)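 MITC95 = lowest inhibitor concentration giving 95% growth inhibition, read by absorbance after 22–24 h at 35° C. Compound range 200 μM to 0.195 μM, imipenem fixed at 1 or 4 μg/ml, bacteria in 1.1×CAMHB from saline suspension diluted 1:100.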

[2] = tested on: Escherichia coli expressing NDM-1 (CLB30016); assay: as above; type: cell-based
Procedure, shortened: as §1

[3] = tested on: Serratia marcescens expressing IMP-1 (CL5741); assay: as above; type: cell-based
Procedure, shortened: as §1

VIM-1 = VIM-1 (Pseudomonas aeruginosa, UniProt A0A0F7KYQ8); assay: Enzyme activity: determination of IC50, fluorescence assay with CCF2-FA substrate; type: biochemical; conditions: CCF2-FA 1.25 μM, 2 hours at 25° C., read-out: VIM1 IC50
Procedure, shortened: (§2)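 100 mM KH2PO4 pH 7 + 0.005% Tween-20 + 10 μM ZnSO4; CCF2-FA 1.25 μM; NDM-1 1 pM, IMP-1 2 pM, VIM-1 30 pM; cpd 20–0.00063 μM final, DMSO 1:50. 2 h, 25° C. Ex 405/em 460 nm; IC50, 4-param fit.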

NDM-1 = NDM-1 (Klebsiella pneumoniae, UniProt C7C422); assay: as above; type: biochemical; conditions: CCF2-FA 1.25 μM, 2 hours at 25° C.
Procedure, shortened: as §2

IMP-1 = IMP-1 (Serratia marcescens, UniProt P52699); assay: as above; type: biochemical; conditions: CCF2-FA 1.25 μM, 2 hours at 25° C., read-out: IMP1 IC50
Procedure, shortened: as §2

[4] = K. pneumoniae IHMA599644 (VIM-1), 95% inhibition of growth
[5] = E. coli CLB30016 (NDM-1), 95% inhibition of growth
[6] = S. marcescens CL5741 (IMP-1), 95% inhibition of growth
[7] = NDM-1 enzyme 1 pM, read-out: NDM1 IC50
[8] = 95% inhibition of bacterial growth, strain IHMA599644
[9] = 95% inhibition of bacterial growth, strain CLB30016
[10] = 95% inhibition of bacterial growth, strain CL5741
[11] = enzyme 1 pM, read-out: NDM1 IC50

Sequence of NDM-1 (C7C422 29-270, looked up, species assumed): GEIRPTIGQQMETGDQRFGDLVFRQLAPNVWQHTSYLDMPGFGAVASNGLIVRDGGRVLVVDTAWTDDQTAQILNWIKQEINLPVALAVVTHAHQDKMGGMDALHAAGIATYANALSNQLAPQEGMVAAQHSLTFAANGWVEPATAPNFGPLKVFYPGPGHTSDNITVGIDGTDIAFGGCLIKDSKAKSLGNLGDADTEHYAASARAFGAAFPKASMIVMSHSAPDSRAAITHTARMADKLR
Sequence of IMP-1 (P52699 19-246, looked up, species assumed): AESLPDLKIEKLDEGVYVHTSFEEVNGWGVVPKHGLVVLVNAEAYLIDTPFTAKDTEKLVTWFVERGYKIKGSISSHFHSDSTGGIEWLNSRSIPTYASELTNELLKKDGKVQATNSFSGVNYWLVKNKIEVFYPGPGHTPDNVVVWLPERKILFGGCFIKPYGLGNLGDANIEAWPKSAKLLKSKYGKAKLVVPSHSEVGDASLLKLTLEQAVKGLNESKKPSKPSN

SMILES	VIM1 KP599644 MITC95 [1, 4] [µM]	NDM1 EC30016 MITC95 [2, 5] [µM]	IMP1 SM5741 MITC95 [3, 6] [µM]	IC50 (VIM-1; VIM-1 enzyme 30 pM) [nM]	IC50 (NDM-1; [7]) [nM]	IC50 (IMP-1; IMP-1 enzyme 2 pM) [nM]	VIM1 KP599644 MITC95 [1, 8] [µM]	NDM1 EC30016 MITC95 [2, 9] [µM]	IMP1 SM5741 MITC95 [3, 10] [µM]	IC50 (VIM-1; enzyme 30 pM) [nM]	IC50 (NDM-1; [11]) [nM]	IC50 (IMP-1; enzyme 2 pM) [nM]	IC50 (NDM-1; NDM1 IC50, NDM-1 enzyme 1 pM) [nM]
CCC[C@H](C(=O)O)[C@H](Cc1cccc(-c2cccc(CN3CCCCC3)c2)c1)c1nn[nH]n1 [Example 358, (2S)-2-[(1S)-2-[3′-(piperidin-1-ylmethyl)biphenyl-3-yl]-1-(2H-tetrazol-5-yl)ethyl]pentanoic acid]	62	38	12.5	6.2	47	1000	–	–	–	–	–	–	–
CCC[C@H](C(=O)O)[C@H](Cc1ccc(-c2cnc(N)nc2)nc1)c1nnn[nH]1 [Example 161, (2S)-2-[(1S)-2-[6-(2-aminopyrimidin-5-yl)pyridin-3-yl]-1-(1H-tetrazol-5-yl)ethyl]pentanoic acid]	–	–	–	–	–	–	50	18.8	18.8	3.3	30	1100	–
CC(C)C[C@H](C(=O)O)[C@H](Cc1ccc(NC2CCNC2)nc1)c1nnn[nH]1 (stereo partly drawn) [Example 321, (2S)-4-methyl-2-[(1S)-2-[6-(pyrrolidin-3-ylamino)pyridin-3-yl]-1-(1H-tetrazol-5-yl)ethyl]pentanoic acid]	18.8	3.1	18.8	5.1	440	1600	–	–	–	–	–	–	–
CC(C)C[C@H](C(=O)O)[C@H](Cc1cnc(NCCO)s1)c1nnn[nH]1 [Example 137, (S)-2-((S)-2-(2-((2-hydroxyethyl)amino)thiazol-5-yl)-1-(1H-tetrazol-5-yl)ethyl)-4-methylpentanoic acid]	–	–	–	–	–	–	37	6.2	12.5	3.5	110	300	–
CC(C)C[C@H](C(=O)O)[C@H](Cc1ccc(-c2ccc3c(c2)OCC(=O)N3)nc1)c1nn[nH]n1 [Example 180, (2S)-4-methyl-2-[(1S)-2-[6-(3-oxo-3,4-dihydro-2H-1,4-benzoxazin-7-yl)pyridin-3-yl]-1-(2H-tetrazol-5-yl)ethyl]pentanoic acid]	–	–	–	–	–	–	50	25	3.1	1.7	17	130	–
CC(C)C[C@H](C(=O)O)[C@H](Cc1ccc(C2=CCNCC2)c(F)c1)c1nn[nH]n1 [Example 453, 4-(4-((2S,3S)-3-carboxy-5-methyl-2-(2H-tetrazol-5-yl)hexyl)-2-fluorophenyl)-1,2,3,6-tetrahydropyridin-1-ium 2,2,2-trifluoroacetate]	12.5	6.25	3.125	2.25	–	101	–	–	–	–	–	–	64.5
CC(C)C[C@H](C(=O)O)[C@H](Cc1ccc(CN2CCNCC2)c(F)c1)c1nn[nH]n1.O=C(O)C(F)(F)F [Example 446, 4-(4-((2S,3S)-3-carboxy-5-methyl-2-(2H-tetrazol-5-yl)hexyl)-2-fluorobenzyl)piperazin-1-ium 2,2,2-trifluoroacetate]	25	12.5	18.75	6.94	170	380	–	–	–	–	–	–	–
Cc1cc(C[C@H](c2nnn[nH]2)[C@@H](C(=O)O)C(C)C)ccc1C1CCNC1 (stereo partly drawn) [Example 110, (2S,3S)-2-isopropyl-4-(3-methyl-4-(pyrrolidin-3-yl)phenyl)-3-(1H-tetrazol-5-yl)butanoic acid]	–	–	–	–	–	–	6.2	4.7	18.8	4.4	24	1400	–
CCC[C@H](C(=O)[O-])[C@H](Cc1ccc(C[N+](C)(C)C)cc1)c1nnn[nH]1 [Example 419, (S)-2-((S)-1-(1H-tetrazol-5-yl)-2-(4-((trimethylammonio)methyl)phenyl)ethyl)pentanoate]	12.5	6.25	50	5.51	869	5920	–	–	–	–	–	–	–

Reference: US9839642B2, “Beta-tetrazolyl-propionic acids as metallo-beta-lactamase inhibitors” (priority 2014, dated 2017)
